In patent publication US20020173640A1, “ADAM polynucleotides, polypeptides, and antibodies” (Human Genome Sciences, Inc., priority 1999, published 2002):
Read-outs that look alike come from different tables or passages of the source. Square brackets hold non-standard residues; d marks the D form. Peptide text beside a SMILES is read from it. * marks the point of attachment. 4Abz = Nc1ccc(C(=O)O)cc1; NHOH = ON*

Key:
MMP-8 = MMP-8 (Homo sapiens, UniProt P22894); conditions: commercial (CALBIOCHEM) inhibitor data; read-out: IC50 against MMP-8; cited from earlier work
MMP-8, sequence (P22894 101-467): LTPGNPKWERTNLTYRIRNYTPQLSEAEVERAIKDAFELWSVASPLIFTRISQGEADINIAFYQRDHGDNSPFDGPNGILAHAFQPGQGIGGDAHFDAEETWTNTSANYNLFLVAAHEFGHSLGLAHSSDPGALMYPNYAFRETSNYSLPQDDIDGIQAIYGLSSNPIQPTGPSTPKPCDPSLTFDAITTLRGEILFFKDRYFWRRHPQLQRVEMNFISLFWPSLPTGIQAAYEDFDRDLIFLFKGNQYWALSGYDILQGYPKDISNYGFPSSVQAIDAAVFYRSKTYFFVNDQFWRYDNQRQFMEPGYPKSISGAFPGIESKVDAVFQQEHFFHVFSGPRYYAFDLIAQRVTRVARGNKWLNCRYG

MMP-3 = MMP-3 (Homo sapiens, UniProt P08254); conditions: commercial (CALBIOCHEM) inhibitor data; read-out: IC50 against MMP-3; cited from earlier work
MMP-3, sequence (P08254 100-477): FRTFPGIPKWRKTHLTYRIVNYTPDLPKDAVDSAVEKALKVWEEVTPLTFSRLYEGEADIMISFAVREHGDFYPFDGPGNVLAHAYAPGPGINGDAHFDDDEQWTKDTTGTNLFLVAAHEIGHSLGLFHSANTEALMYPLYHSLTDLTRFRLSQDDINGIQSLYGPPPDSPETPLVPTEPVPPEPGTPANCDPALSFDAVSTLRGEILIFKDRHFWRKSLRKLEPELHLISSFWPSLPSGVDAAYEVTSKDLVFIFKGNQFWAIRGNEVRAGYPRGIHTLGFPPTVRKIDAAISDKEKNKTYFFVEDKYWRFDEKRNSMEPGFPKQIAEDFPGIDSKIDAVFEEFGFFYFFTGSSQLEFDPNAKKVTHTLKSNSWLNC

MMP-9 = MMP-9 (Homo sapiens, UniProt P14780); conditions: commercial (CALBIOCHEM) inhibitor data; read-out: IC50 against MMP-9; cited from earlier work
MMP-9, sequence (P14780 94-707): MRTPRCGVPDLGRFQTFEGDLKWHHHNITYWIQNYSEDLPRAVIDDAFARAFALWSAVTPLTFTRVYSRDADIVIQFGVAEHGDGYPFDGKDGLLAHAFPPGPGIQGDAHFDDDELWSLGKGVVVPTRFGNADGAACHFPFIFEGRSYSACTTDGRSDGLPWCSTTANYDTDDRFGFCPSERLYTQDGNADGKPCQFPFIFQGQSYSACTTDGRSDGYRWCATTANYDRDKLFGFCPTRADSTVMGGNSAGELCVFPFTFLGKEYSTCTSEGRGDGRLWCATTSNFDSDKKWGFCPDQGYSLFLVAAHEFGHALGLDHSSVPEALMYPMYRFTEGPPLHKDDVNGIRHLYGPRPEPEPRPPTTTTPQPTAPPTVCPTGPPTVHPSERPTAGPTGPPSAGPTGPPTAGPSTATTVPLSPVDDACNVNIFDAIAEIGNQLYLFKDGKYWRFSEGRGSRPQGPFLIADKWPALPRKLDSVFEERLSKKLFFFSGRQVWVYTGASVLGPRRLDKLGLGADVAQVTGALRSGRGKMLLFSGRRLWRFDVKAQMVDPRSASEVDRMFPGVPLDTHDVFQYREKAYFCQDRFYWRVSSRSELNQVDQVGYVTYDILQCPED

MMP-1 = MMP-1 (Homo sapiens, UniProt P03956); conditions: commercial (CALBIOCHEM) inhibitor data; read-out: IC50 against MMP-1; cited from earlier work
MMP-1, sequence (P03956 100-469): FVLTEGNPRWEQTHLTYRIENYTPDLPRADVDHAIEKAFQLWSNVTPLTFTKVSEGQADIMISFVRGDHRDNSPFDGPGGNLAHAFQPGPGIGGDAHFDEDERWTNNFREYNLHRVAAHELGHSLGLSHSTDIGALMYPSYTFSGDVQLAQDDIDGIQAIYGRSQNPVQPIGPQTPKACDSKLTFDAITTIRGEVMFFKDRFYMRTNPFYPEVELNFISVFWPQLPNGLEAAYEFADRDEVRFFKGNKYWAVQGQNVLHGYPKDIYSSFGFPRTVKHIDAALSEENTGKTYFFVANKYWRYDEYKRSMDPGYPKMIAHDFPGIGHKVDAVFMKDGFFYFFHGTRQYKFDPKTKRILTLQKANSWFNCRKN

hADAM-19 = target: T1, hADAM-19 (Homo sapiens, UniProt Q9H013); experiment: Inhibition of α2-M cleavage by hADAM-19 (SDS-PAGE, silver staining); assay type: biochemical
T1 construct: made in house
T1 sequence (Q9H013 26-701 isoform Q9H013-2): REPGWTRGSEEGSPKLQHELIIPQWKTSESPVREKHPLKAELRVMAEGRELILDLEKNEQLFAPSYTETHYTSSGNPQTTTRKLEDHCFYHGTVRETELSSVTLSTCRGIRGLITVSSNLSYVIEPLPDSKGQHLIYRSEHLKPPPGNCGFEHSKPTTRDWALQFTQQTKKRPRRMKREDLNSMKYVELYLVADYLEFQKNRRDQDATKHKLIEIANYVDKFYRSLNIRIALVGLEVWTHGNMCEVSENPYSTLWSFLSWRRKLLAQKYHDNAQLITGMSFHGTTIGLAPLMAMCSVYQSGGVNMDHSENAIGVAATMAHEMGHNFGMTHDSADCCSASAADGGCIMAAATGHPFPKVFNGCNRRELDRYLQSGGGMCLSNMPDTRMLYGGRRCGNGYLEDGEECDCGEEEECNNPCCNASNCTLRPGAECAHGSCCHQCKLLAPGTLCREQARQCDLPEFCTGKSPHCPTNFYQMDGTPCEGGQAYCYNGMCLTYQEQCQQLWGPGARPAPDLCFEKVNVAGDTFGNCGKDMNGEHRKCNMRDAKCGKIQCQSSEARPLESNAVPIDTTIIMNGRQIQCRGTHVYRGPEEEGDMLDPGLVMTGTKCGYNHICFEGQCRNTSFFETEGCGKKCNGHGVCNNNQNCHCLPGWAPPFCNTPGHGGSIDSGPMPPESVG
Method: 20 mM EDTA, 20 rmiM EGTA, 10 mM HgCl2, 1 miM TIMP-1,-2 (TIMP: hADAM-19 molar ratio was 100:1) and three commercial (CALBIOCHEM) small molecule human MMP inhibitors were used to inhibit α2-M cleavage by hADAM-19. […] Briefly, different concentrations of those inhibitors were mixed with 7.5 μl of hADAM-19 (50 μg/ml) in 22.9 μl of 1× HEPES buffer (50 mM HEPES, pH 7.5, 0.2 M NaCl, 10 mM CaCl2, 25 μM ZnCl, and 0.05%Brij-35) and incubated at room temperature (24° C.) for 2-hr, then 7.1 μl of substrate α2-M (0.2 unit/ml) were added and incubated at 37° C. for 20-hr. The reactions were stopped by adding 4× sample bufer and boiled immediately for 5 minutes. After SDS-PAGE, the protein bands were visualized by silver staining.

[1] = system: viruses containing the K103N mutation; conditions: cited from earlier work
[2] = target: T2, Bovine plasma alpha-2-macroglobulin (UniProt Q7SIH1)
T2 sequence: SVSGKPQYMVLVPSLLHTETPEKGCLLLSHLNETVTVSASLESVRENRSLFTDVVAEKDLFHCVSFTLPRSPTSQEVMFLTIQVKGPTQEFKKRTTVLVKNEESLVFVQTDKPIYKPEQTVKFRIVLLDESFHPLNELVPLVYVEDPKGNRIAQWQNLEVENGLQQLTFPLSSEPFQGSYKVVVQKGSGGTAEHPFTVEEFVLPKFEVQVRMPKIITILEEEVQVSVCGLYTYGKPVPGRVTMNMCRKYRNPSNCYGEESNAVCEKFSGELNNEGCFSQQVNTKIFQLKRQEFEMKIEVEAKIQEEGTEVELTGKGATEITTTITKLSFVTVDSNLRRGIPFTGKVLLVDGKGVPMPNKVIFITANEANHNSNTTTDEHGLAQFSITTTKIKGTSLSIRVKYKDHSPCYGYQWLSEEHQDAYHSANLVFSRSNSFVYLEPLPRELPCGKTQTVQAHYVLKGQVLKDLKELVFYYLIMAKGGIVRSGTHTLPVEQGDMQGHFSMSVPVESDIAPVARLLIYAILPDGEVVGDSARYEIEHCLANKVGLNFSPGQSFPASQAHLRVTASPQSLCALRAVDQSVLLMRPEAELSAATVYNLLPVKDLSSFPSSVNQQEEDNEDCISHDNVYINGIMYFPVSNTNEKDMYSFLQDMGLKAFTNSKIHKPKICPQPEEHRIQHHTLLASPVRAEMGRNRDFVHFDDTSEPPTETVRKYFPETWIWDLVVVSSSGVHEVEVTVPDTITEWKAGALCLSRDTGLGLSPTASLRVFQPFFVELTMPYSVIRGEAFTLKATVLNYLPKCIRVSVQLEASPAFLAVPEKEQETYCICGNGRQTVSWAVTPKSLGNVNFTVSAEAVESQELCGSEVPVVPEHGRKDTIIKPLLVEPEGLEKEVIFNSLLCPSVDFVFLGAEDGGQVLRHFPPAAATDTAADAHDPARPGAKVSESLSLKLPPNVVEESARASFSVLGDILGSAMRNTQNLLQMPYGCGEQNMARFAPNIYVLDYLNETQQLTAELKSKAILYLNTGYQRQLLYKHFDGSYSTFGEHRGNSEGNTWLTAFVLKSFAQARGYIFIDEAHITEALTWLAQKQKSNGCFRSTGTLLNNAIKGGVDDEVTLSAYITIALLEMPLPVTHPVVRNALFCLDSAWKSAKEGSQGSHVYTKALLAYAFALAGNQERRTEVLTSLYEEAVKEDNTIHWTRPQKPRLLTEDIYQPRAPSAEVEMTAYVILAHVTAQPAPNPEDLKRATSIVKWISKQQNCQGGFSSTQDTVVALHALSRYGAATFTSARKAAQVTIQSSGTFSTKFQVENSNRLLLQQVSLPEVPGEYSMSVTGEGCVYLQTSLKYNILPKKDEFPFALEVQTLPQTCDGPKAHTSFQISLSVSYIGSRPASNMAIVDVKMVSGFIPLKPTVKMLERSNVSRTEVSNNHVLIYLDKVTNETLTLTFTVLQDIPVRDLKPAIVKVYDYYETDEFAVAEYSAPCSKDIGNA

HIV = conditions: cited from earlier work
[3] = target: Mca fluorogenic peptide substrate M-2255
[4] = target: Mca fluorogenic peptide substrate M-2105
[5] = target: T3, Bovine plasma alpha-2-macroglobulin, Q7SIH1
T3 chain: T2 sequence

[6] = target: Mca fluorogenic peptide substrate M-2225
[7] = target: Mca fluorogenic peptide substrate M-2110
[8] = target: rat tail tendon type I gelatin
[9] = target: Mca fluorogenic peptide substrate M-1985
[10] = summary statement, concentration not given

Molecule: CC(C)C[C@@H](NC(=O)[C@@H]1CCCN1C(=O)CNC(=O)c1ccc(N)cc1)C(=O)N[C@H](C)C(=O)NO [MMP inhibitor I] (H-[4Abz]GP[dL][dA]-{NHOH})
- IC50 (MMP-8): 1000 nM
- IC50 (MMP-3): 150 µM
- IC50 (MMP-9): 30 µM
- IC50 (MMP-1): 1000 nM
- blockage of hADAM-19 digestion of α2-M (hADAM-19; 1 mM inhibitor): did not block

Molecule: CC(C)c1nc(COC(N)=O)n(Cc2ccncc2)c1Sc1cc(Cl)cc(Cl)c1 [CAPRAVIRINE]
- activity against K103N mutants [1]: activity against viruses containing the K103N mutation

Molecule: Trypsin
- cleavage of α2-M (SDS-PAGE, silver staining) [2]: Trypsin was used as a positive proteinase control to cleave α2-M and it generated a 72 kDa major band and a 35 kDa minor band

Molecule: O=C(O)CN(CCN(CC(=O)O)CC(=O)O)CC(=O)O [EDTA]
- blockage of hADAM-19 digestion of α2-M (hADAM-19): completely blocked
- blockage of hADAM-19 proteolytic activity against α2-M (hADAM-19): blocked completely

Molecule: Nc1nc(=O)n([C@@H]2CS[C@H](CO)O2)cc1F [COVIRACIL, emtricitabine]
- activity in vitro relative to lamivudine (3TC) (HIV; greater activity than lamivudine (3TC)): 3- to 10 fold

Molecule: COc1ccc(S(=O)(=O)N(CC(=O)NO)CC(C)C)cc1 [MMP-3 inhibitor II, N-Isobutyl-N-(4-methoxyphenylsulfonyl)-glycylhydroxamic acid]
- blockage of hADAM-19 digestion of α2-M (hADAM-19; 100 µM inhibitor): partially blocked
- blockage of hADAM-19 digestion of α2-M (hADAM-19; 1 mM inhibitor): partially blocked

Molecule: O=C(O)CN(CCOCCOCCN(CC(=O)O)CC(=O)O)CC(=O)O [EGTA]
- blockage of hADAM-19 digestion of α2-M (hADAM-19; 20 mM inhibitor): completely blocked
- blockage of hADAM-19 proteolytic activity against α2-M (hADAM-19; [10]): blocked completely

Molecule: TIMP-1: tissue inhibitor of metalloproteinases
- blockage of hADAM-19 digestion of α2-M (hADAM-19; TIMP:hADAM-19 molar ratio of 100:1): Neither TIMP-1 or TIMP-2 at TIMP:hADAM-1 9 molar ratio of 100:1 were able to block
- blockage of hADAM-19 proteolytic activity against α2-M (hADAM-19; [10]): not blocked

Molecule: c1cnc2c(c1)ccc1cccnc12 [1,10-phenathroline]
- blockage of hADAM-19 proteolytic activity against α2-M (hADAM-19; [10]): blocked completely

Molecule: [Cl][Hg][Cl] [HgCl2]
- blockage of hADAM-19 digestion of α2-M (hADAM-19; 10 mM inhibitor): completely blocked
- blockage of hADAM-19 proteolytic activity against α2-M (hADAM-19; [10]): blocked completely

Molecule: CC[C@H]1C(=O)Nc2ccc(F)cc2N1C(=O)OC(C)C [GW-420867X]
- activity relative to HBY097 (HIV; greater activity than HBY097): 25 fold
- activity against K103N mutants [1]: active against K103N mutants

Molecule: C[C@H](Sc1nc(N)cc(Cl)n1)c1cc2ccoc2cn1 [PNU-142721]
- activity relative to delavirdine (HIV; greater activity than its predecessor delavirdine): 20- to 50 fold
- activity against K103N mutants [1]: active against K103N mutants

B1: Flag-tagged hADAM-19 protein (residues 26-701 of SEQ ID NO: 9) (protein)
chain: T1 sequence (Q9H013 26-701 isoform Q9H013-2)
- fluorogenic peptide substrate cleavage [3]: Neither were the 5 different synthetic fluorogenic peptide substrates listed in the Materials and Methods
- fluorogenic peptide substrate cleavage [4]: Neither were the 5 different synthetic fluorogenic peptide substrates listed in the Materials and Methods
- cleavage of α2-M (SDS-PAGE, silver staining) [5]: Human hADAM-19 cleaved α2-M to yield new bands of 105 kDa and a 72 kDa
- proteolysis of alpha-2 macroglobulin [5]: a polypeptide corresponding to this gene displayed metal-dependant proteolysis of alpha-2 macroglobulin
- substrate digestion (bovine casein): rat tail tendon type I gelatin and bovine casein, were not dissolved by hADAM-19
- fluorogenic peptide substrate cleavage [6]: Neither were the 5 different synthetic fluorogenic peptide substrates listed in the Materials and Methods
- fluorogenic peptide substrate cleavage [7]: Neither were the 5 different synthetic fluorogenic peptide substrates listed in the Materials and Methods
- substrate digestion [8]: rat tail tendon type I gelatin and bovine casein, were not dissolved by hADAM-19
- fluorogenic peptide substrate cleavage [9]: Neither were the 5 different synthetic fluorogenic peptide substrates listed in the Materials and Methods
